Laboratory results: patent publication US20100267561A1, “HERBICIDAL PYRIDAZINONE DERIVATIVES” (priority 2007, published 2010)

Columns and labels:
Experiment in all cases: Test B pre-/postemergence plant response
Format in all cases: in vivo
[1] = system: eastern black (E.B.) nightshade (Solanum ptycanthum); details: Preemergence
Method in brief: (§1)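 Preemergence and postemergence (plants 2-18 cm, 1- to 4-leaf stage) applications used test chemicals in a non-phytotoxic solvent with surfactant. Plants were held in a greenhouse 13 to 15 days, then rated visually against controls on a 0-100 scale (0 no effect, 100 complete control).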

[2] = system: Russian thistle (Salsola iberica); details: Preemergence
Method in brief: as §1

[3] = system: johnsongrass (Sorghum halepense)
Method in brief: as §1

[4] = system: surinam grass (Brachiaria decumbens)
Method in brief: as §1

[5] = system: common ragweed (Ambrosia elation)
Method in brief: as §1

[6] = system: green foxtail (Setaria viridis)
Method in brief: as §1

[7] = system: yellow nutsedge (Cyperus esculentus)
Method in brief: as §1

[8] = system: pigweed (Amaranthus retroflexus)
Method in brief: as §1

[9] = system: goosegrass (Eleusine indica)
Method in brief: as §1

corn (Zea mays) = system: corn (Zea mays)
Method in brief: as §1

[10] = system: giant foxtail (Setaria faberii)
Method in brief: as §1

[11] = system: common (oilseed) sunflower (Helianthus annuus); details: Preemergence
Method in brief: as §1

[12] = system: Italian ryegrass (Lolium multiflorum)
Method in brief: as §1

[13] = 16 g ai/ha, scale 0 to 100 (0 no effect, 100 complete control)
[14] = 31 g ai/ha, scale 0 to 100 (0 no effect, 100 complete control)
[15] = Preemergence, 16 g ai/ha, scale 0 to 100 (0 no effect, 100 complete control)
[16] = Preemergence, 31 g ai/ha, 0 to 100 scale, 0 no effect, 100 complete control
[17] = Preemergence, 62 g ai/ha, scale 0 to 100
[18] = Preemergence, 8 g ai/ha, scale 0 to 100
[19] = Preemergence, 31 g ai/ha, scale 0 to 100 (0 no effect, 100 complete control)
[20] = Preemergence, 62 g ai/ha, 0 to 100 scale, 0 no effect, 100 complete control
[21] = 8 g ai/ha, scale 0 to 100 (0 no effect, 100 complete control)
[22] = 62 g ai/ha, 0 to 100 scale, 0 no effect, 100 complete control
[23] = 8 g ai/ha, postemergence, 0-100 scale
[24] = 16 g ai/ha, postemergence, 0-100 scale
[25] = Postemergence, 31 g ai/ha, scale 0 to 100
[26] = Postemergence, 62 g ai/ha, scale 0 to 100, 0 no effect, 100 complete control
[27] = Preemergence, 8 g ai/ha, scale 0 to 100 (0 no effect, 100 complete control)
[28] = Preemergence, 16 g ai/ha, scale 0 to 100

Cc1cc(-c2ccc(Cl)cc2)nn1-c1c(OS(=O)(=O)C(C)C)cnn(C)c1=O [Compound 50]
Plant response rating, Nightshade, E. B. [1, 13]: 0 | Plant response rating, Nightshade, E. B. [1, 14]: 100 | Plant response rating, Nightshade, E. B. ([1]; 62 g ai/ha, scale 0 to 100): 100 | Nightshade, E. B. plant response rating ([1]; 8 g ai/ha, scale 0 to 100): 0 | Plant response rating, Russian Thistle [2, 13]: 0 | Plant response rating, Russian Thistle [2, 14]: 0 | Plant response rating, Russian Thistle ([2]; 62 g ai/ha, scale 0 to 100): 0 | Russian Thistle plant response rating ([2]; 8 g ai/ha, scale 0 to 100): 0 | Plant response rating, Johnsongrass [3, 15]: 95 | Plant response rating, Johnsongrass [3, 16]: 98 | Plant response rating, Johnsongrass [3, 17]: 100 | Johnsongrass plant response rating [3, 18]: 70 | Plant response rating, Surinam Grass [4, 15]: 40 | Plant response rating, Surinam Grass [4, 19]: 90 | Plant response rating, Surinam Grass [4, 20]: 98 | Surinam Grass plant response rating [4, 18]: 20 | Plant response rating, Ragweed [5, 15]: 0 | Plant response rating, Ragweed [5, 19]: 0 | Plant response rating, Ragweed [5, 17]: 0 | Ragweed plant response rating [5, 18]: 0 | Plant response rating, Foxtail, Green [6, 15]: 95 | Plant response rating, Foxtail, Green [6, 16]: 98 | Plant response rating, Foxtail, Green [6, 17]: 100 | Foxtail, Green plant response rating [6, 18]: 0 | Plant response rating, Nutsedge, Yellow [7, 15]: 0 | Plant response rating, Nutsedge, Yellow [7, 19]: 0 | Plant response rating, Nutsedge, Yellow [7, 17]: 0 | Nutsedge, Yellow plant response rating [7, 18]: 0 | Plant response rating, Pigweed [8, 15]: 0 | Plant response rating, Pigweed [8, 19]: 0 | Plant response rating, Pigweed [8, 17]: 0 | Pigweed plant response rating [8, 18]: 0 | Plant response rating, Goosegrass [9, 15]: 80 | Plant response rating, Goosegrass [9, 16]: 98 | Plant response rating, Goosegrass [9, 17]: 100 | Goosegrass plant response rating [9, 18]: 0 | Plant response rating, Corn (corn (Zea mays); [15]): 0 | Plant response rating, Corn (corn (Zea mays); [17]): 90 | Corn plant response rating (corn (Zea mays); [18]): 0 | Plant response rating, Foxtail, Giant [10, 15]: 98 | Plant response rating, Foxtail, Giant [10, 16]: 100 | Plant response rating, Foxtail, Giant [10, 17]: 100 | Foxtail, Giant plant response rating [10, 18]: 20 | Plant response rating, Sunflower [11, 13]: 0 | Plant response rating, Sunflower [11, 14]: 0 | Plant response rating, Sunflower ([11]; 62 g ai/ha, scale 0 to 100): 20 | Sunflower plant response rating ([11]; 8 g ai/ha, scale 0 to 100): 0 | Plant response rating, Ryegrass, Italian [12, 15]: 0 | Plant response rating, Ryegrass, Italian [12, 19]: 5 | Plant response rating, Ryegrass, Italian [12, 17]: 100 | Ryegrass, Italian plant response rating [12, 18]: 0

COc1nn(C)c(=O)c(-n2nc(-c3ccc(Br)cc3)cc2C)c1O [Compound 82]
Nightshade, E. B. plant response rating [1, 21]: 0 | Plant response rating, Nightshade, E. B. [1, 14]: 0 | Plant response rating, Nightshade, E. B. [1, 22]: 0 | Nightshade, E. B. plant response rating ([1]; 16 g ai/ha, scale 0 to 100): 0 | Russian Thistle plant response rating [2, 21]: 0 | Plant response rating, Russian Thistle [2, 14]: 0 | Plant response rating, Russian Thistle [2, 22]: 0 | Russian Thistle plant response rating ([2]; 16 g ai/ha, scale 0 to 100): 0 | Johnsongrass plant response rating [3, 23]: 100 | Johnsongrass plant response rating [3, 24]: 100 | Plant response rating, Johnsongrass [3, 25]: 100 | Plant response rating, Johnsongrass [3, 26]: 100 | Johnsongrass plant response rating [3, 27]: 70 | Plant response rating, Johnsongrass [3, 19]: 98 | Plant response rating, Johnsongrass [3, 20]: 100 | Johnsongrass plant response rating [3, 28]: 85 | Surinam Grass plant response rating [4, 23]: 75 | Surinam Grass plant response rating [4, 24]: 95 | Plant response rating, Surinam Grass [4, 25]: 100 | Plant response rating, Surinam Grass [4, 26]: 100 | Surinam Grass plant response rating [4, 27]: 80 | Plant response rating, Surinam Grass [4, 19]: 95 | Plant response rating, Surinam Grass [4, 20]: 100 | Surinam Grass plant response rating [4, 28]: 85 | Ragweed plant response rating [5, 23]: 20 | Ragweed plant response rating [5, 24]: 40 | Plant response rating, Ragweed [5, 25]: 65 | Plant response rating, Ragweed [5, 26]: 85 | Ragweed plant response rating [5, 27]: 0 | Plant response rating, Ragweed [5, 19]: 50 | Plant response rating, Ragweed [5, 20]: 80 | Ragweed plant response rating [5, 28]: 20 | Foxtail, Green plant response rating [6, 23]: 85 | Foxtail, Green plant response rating [6, 24]: 100 | Plant response rating, Foxtail, Green [6, 25]: 100 | Plant response rating, Foxtail, Green [6, 26]: 100 | Foxtail, Green plant response rating [6, 27]: 70 | Plant response rating, Foxtail, Green [6, 19]: 100 | Plant response rating, Foxtail, Green [6, 20]: 100 | Foxtail, Green plant response rating [6, 28]: 100 | Nutsedge, Yellow plant response rating [7, 23]: 0 | Nutsedge, Yellow plant response rating [7, 24]: 0 | Plant response rating, Nutsedge, Yellow [7, 25]: 0 | Plant response rating, Nutsedge, Yellow [7, 26]: 0 | Nutsedge, Yellow plant response rating [7, 27]: 0 | Plant response rating, Nutsedge, Yellow [7, 19]: 0 | Plant response rating, Nutsedge, Yellow [7, 20]: 45 | Nutsedge, Yellow plant response rating [7, 28]: 0 | Pigweed plant response rating [8, 23]: 0 | Pigweed plant response rating [8, 24]: 0 | Plant response rating, Pigweed [8, 25]: 0 | Plant response rating, Pigweed [8, 26]: 0 | Pigweed plant response rating [8, 27]: 0 | Plant response rating, Pigweed [8, 19]: 0 | Plant response rating, Pigweed [8, 20]: 0 | Goosegrass plant response rating [9, 23]: 60 | Goosegrass plant response rating [9, 24]: 65 | Plant response rating, Goosegrass [9, 25]: 85 | Plant response rating, Goosegrass [9, 26]: 90 | Goosegrass plant response rating [9, 27]: 95 | Plant response rating, Goosegrass [9, 19]: 98 | Plant response rating, Goosegrass [9, 20]: 100 | Goosegrass plant response rating [9, 28]: 98 | Corn plant response rating (corn (Zea mays); [23]): 40 | Corn plant response rating (corn (Zea mays); [24]): 100 | Plant response rating, Corn (corn (Zea mays); [25]): 100 | Plant response rating, Corn (corn (Zea mays); [26]): 100 | Corn plant response rating (corn (Zea mays); [27]): 95 | Plant response rating, Corn (corn (Zea mays); [19]): 98 | Plant response rating, Corn (corn (Zea mays); [20]): 98 | Corn plant response rating (corn (Zea mays); [28]): 95 | Foxtail, Giant plant response rating [10, 23]: 95 | Foxtail, Giant plant response rating [10, 24]: 100 | Plant response rating, Foxtail, Giant [10, 25]: 100 | Plant response rating, Foxtail, Giant [10, 26]: 100 | Foxtail, Giant plant response rating [10, 27]: 98 | Plant response rating, Foxtail, Giant [10, 19]: 100 | Plant response rating, Foxtail, Giant [10, 20]: 100 | Foxtail, Giant plant response rating [10, 28]: 100 | Sunflower plant response rating [11, 21]: 0 | Plant response rating, Sunflower [11, 14]: 70 | Plant response rating, Sunflower [11, 22]: 85 | Sunflower plant response rating ([11]; 16 g ai/ha, scale 0 to 100): 60 | Ryegrass, Italian plant response rating [12, 23]: 98 | Ryegrass, Italian plant response rating [12, 24]: 98 | Plant response rating, Ryegrass, Italian [12, 25]: 100 | Plant response rating, Ryegrass, Italian [12, 26]: 100 | Ryegrass, Italian plant response rating [12, 27]: 40 | Plant response rating, Ryegrass, Italian [12, 19]: 100 | Plant response rating, Ryegrass, Italian [12, 20]: 100 | Ryegrass, Italian plant response rating [12, 28]: 98
